From US20240165062A1, “COMPOSITION FOR INCREASING MUSCLE” (YUKI GOSEI KOGYO CO., LTD., priority 2022, published 2024)

Tests used:
C2C12 cells = conditions: β-alanine 0.5 mM or 1.0 mM every 2 days, 9 days from induction of differentiation, FIG. 3
[1] = test system: MyHCIIb gene in C2C12 cells; conditions: β-alanine added twice at 24 h interval, vs 1×PBS control, FIG. 1
Description: (§1) In this example, β-alanine was added to C2C12 cells and the expression of MyHCI (slow muscle marker), MyHCIIa (fast muscle marker), MyHCIIb (fast muscle marker), and MyHCIIx (fast muscle marker) genes were examined.
(§2) High Pure RNA Isolation Kit (Roche, Basel, Switzerland) was used for total RNA preparation. C2C12 cells were seeded at a concentration of 5.0×10^4 cells/mL in 5 mL Dish. After 24 hours of incubation, β-alanine was added. 1×PBS was added to the control cells at the same volume as the added amount of β-alanine. Twenty-four hours after the addition of 3-alanine, sample was secondary added. After 24 hours of incubation, the culture supernatant was aspirated off. After washing the cells twice with 1×PBS, 1×PBS 200 μL/dish and […] of Lysis/-binding buffer included in High Pure RNA Isolation Kit were added to the entire dish, and the total amount was collected in a 1.5-mL tube. The collected samples were suspended using a vortex mixer for 60 seconds. The filter tube and the collection tube in the kit were assembled, the sample solution was added to the filter tube, and centrifuged at 4° C., 9200×g for 15 seconds. The liquid drained into the collection tube was discarded, and the filter tube and collection tube were assembled again. In a 1.5-mL tube, 90 μL of DNase Incubation Buffer per sample and 10 μL of DNase I per sample were mixed. The mixture was added to the filter tubes and incubated at room temperature for 15 minutes. After incubation, Wash buffer I (500 μL) was added to the filter tubes and centrifuged at 4° C., 9200×g for 15 seconds.

[2] = test system: MyHCIIa gene in C2C12 cells; conditions: β-alanine added twice at 24 h interval, vs 1×PBS control, FIG. 1
Description: as §1, §2

[3] = test system: MyHCIIx gene in C2C12 cells; conditions: β-alanine added twice at 24 h interval, vs 1×PBS control, FIG. 1
Description: as §1, §2

[4] = test system: MyHCI gene in C2C12 cells; conditions: β-alanine added twice at 24 h interval, vs 1×PBS control, FIG. 1
Description: as §1, §2

[5] = test system: MyHCIIb gene in C2C12 cells; conditions: differentiated C2C12 cells, β-alanine 1 mM and 10 mM for 2 days, FIG. 4
Description: (§3) FIG. 4 is graphs showing the mRNA expressions of MyHCI (slow muscle)(A), MyHCIIa (fast muscle)(B), MyHCIIx (fast muscle)(C), and MyHCIIb (fast muscle) (D) measured by RT-qPCR in the C2C12 cells wherein the differentiated C2C12 cells were then treated by addition of 0.5, 1, or 10 (mM) of β-alanine for 2 days.
as §1
(§4) C2C12 cells were seeded in 6-well plates at a concentration of 2.0×10^5 cells/mL, and after 48 hours the medium was replaced with DMEM medium containing 2% Horse Serum (HS) (Thermo Fisher Scientific) to induce differentiation. Further, after 24 hours, the medium was replaced with DMEM medium containing 2% HS. The medium was changed every 2 days thereafter, and further the medium changes and the additions of β-alanine (0.5 mM, 1 mM, or 10 mM) were conducted on the 8th and 9th day after seeding. The cells on 10th day after seeding were used for the experiments. For controls, 1×PBS was added at the same volume as the amount of β-alanine.
(§5) Total RNA preparation and RT-qPCR were performed according to Example 1.

[6] = test system: MyHCIIa gene in C2C12 cells; conditions: differentiated C2C12 cells, β-alanine 0.5 mM, 1 mM and 10 mM for 2 days, FIG. 4
Description: as §3, §1, §4, §5

[7] = test system: MyHCIIx gene in C2C12 cells; conditions: differentiated C2C12 cells, β-alanine 1 mM and 10 mM for 2 days, FIG. 4
Description: as §3, §1, §4, §5

[8] = test system: MyHCI gene in C2C12 cells; conditions: differentiated C2C12 cells, β-alanine 0.5 mM, 1 mM and 10 mM for 2 days, FIG. 4
Description: as §3, §1, §4, §5

MyoD gene in C2C12 cells = conditions: vs 1×PBS control, FIG. 2

NCCC(=O)O [β-alanine]
differentiation of myoblasts into myotube cells (C2C12 cells): promoted | number of myotubular cells (C2C12 cells): increased | ratio of slow muscle cells (slow muscle area / myotube area) (C2C12 cells): increased as the amount of β-alanine increased | expression of the fast muscle marker MyHCIIb [1]: increased | expression of the fast muscle marker MyHCIIa [2]: increased | expression of the fast muscle marker MyHCIIx [3]: increased | expression of the slow muscle marker MyHCI [4]: increased | MyHCIIb (fast muscle) mRNA expression [5]: significantly increased | MyHCIIa (fast muscle marker) gene expression [6]: concentration-dependent enhancement | MyHCIIx (fast muscle) mRNA expression [7]: significantly increased | MyHCI (slow muscle marker) mRNA expression [8]: significantly increased | expression of MyoD, a transcriptional regulator of muscle differentiation (MyoD gene in C2C12 cells): increased
